From US6949648B2, “Condensed pyrazole derivatives, process for producing the same and use thereof” (Takeda Pharmaceutical Company Limited, priority 2000, dated 2005)
Structures can show the parent of a compound that is named as a salt.

Row | Compound | melting point [°C]
1 | Cc1cc(O)c2c(C)nn(-c3ccccn3)c2n1 [Example 1-18, 3,6-Dimethyl-1-(2-pyridinyl)-1H-pyrazolo[3,4-b]pyridin-4-ol] | 175 to 176
2 | Cc1nn(-c2nccs2)c2[nH]c3ccccc3c(=O)c12 [Example 2-151, 3-Methyl-1-(1,3-thiazol-2-yl)-1,9-dihydro-4H-pyrazolo[3,4-b]quinolin-4-one] | 226 to 227
3 | Cc1nn(-c2ccccn2)c2nc3ccc(Cl)cc3c(N)c12 [Example 2-71, 6-Chloro-3-methyl-1-(2-pyridinyl)-1H-pyrazolo[3,4-b]quinolin-4-ylamine] | 289 to 292
4 | Cc1nn(-c2ccccn2)c2ncc(C(=O)Nc3cccc(F)c3)c(O)c12 [Example 1-13, N-(3-Fluorophenyl)-4-hydroxy-3-methyl-1-(2-pyridinyl)-1H-pyrazolo[3,4-b]pyridine-5-carboxamide] | > 300
5 | Cc1cccnc1-n1nc(C)c2c(Cl)c3c(C)cccc3nc21 [Example 2-123, 4-Chloro-3,5-dimethyl-1-(3-methyl-2-pyridinyl)-1H-pyrazolo[3,4-b]quinoline] | 176 to 178
6 | Cc1cccc2[nH]c3c(c(C)nn3-c3ccccn3)c(=O)c12 [Example 2-31, 3,5-Dimethyl-1-(2-pyridinyl)-1,9-dihydro-4H-pyrazolo[3,4-b]quinolin-4-one] | 183 to 186
7 | Cc1nn(-c2ccccn2)c2[nH]c3ccc(S(C)(=O)=O)cc3c(=O)c12 [Example 2-52, 3-Methyl-6-(methylsulfonyl)-1-(2-pyridinyl)-1,9-dihydro-4H-pyrazolo[3,4-b]quinolin-4-one] | > 300
8 | Cc1nn(Cc2ccccn2)c2nc3ccccc3c(N(C)C)c12 [Example 2-188, N,N-Dimethyl-N-[3-methyl-1-(2-pyridinylmethyl)-1H-pyrazolo[3,4-b]quinolin-4-yl]amine] | 166 to 168
9 | Cc1nn(-c2ccccn2)c2nc3cc(F)c(F)cc3c(OC(C)C)c12 [Example 2-95, 6,7-Difluoro-4-isopropoxy-3-methyl-1-(2-pyridinyl)-1H-pyrazolo[3,4-b]quinoline] | 159 to 160
10 | Fc1cccc2nc3c(cnn3-c3ccccn3)c(Cl)c12 [Example 2-162, 4-Chloro-5-fluoro-1-(2-pyridinyl)-1H-pyrazolo[3,4-b]quinoline] | 173 to 176
11 | COc1cccc(-n2nc(C)c3c(Cl)c4cccc(C)c4nc32)n1 [Example 2-126, 4-Chloro-3,8-dimethyl-1-(6-methoxy-2-pyridinyl)-1H-pyrazolo[3,4-b]quinoline] | 148 to 151
12 | Cc1nn(-c2cccnc2)c2[nH]c3ccccc3c(=O)c12 [Example 2-138, 3-Methyl-1-(3-pyridinyl)-1,9-dihydro-4H-pyrazolo[3,4-b]quinolin-4-one] | 282 to 283
13 | Cc1nn(Cc2ccccn2)c2nc3ccccc3c(N)c12 (as salt: salt) [Example 2-187, 3-Methyl-1-(2-pyridinylmethyl)-1H-pyrazolo[3,4-b]quinolin-4-ylamine] | 262 to 265
14 | Cc1cccnc1-n1nc(C)c2c(N)c3c(C)cccc3nc21 [Example 2-124, 3,5-Dimethyl-1-(3-methyl-2-pyridinyl)-1H-pyrazolo[3,4-b]quinolin-4-ylamine] | 271 to 274
15 | CCOc1cccc(-n2nc(C)c3c(=O)c4cccc(C)c4[nH]c32)n1 [Example 2-130, 3,8-Dimethyl-1-(6-ethoxy-2-pyridinyl)-1,9-dihydro-4H-pyrazolo[3,4-b]quinolin-4-one] | 239 to 241
16 | CCCSc1c2ccccc2nc2c1c(C)nn2-c1ccccn1 [Example 2-27, 3-Methyl-4-(propylsulfanyl)-1-(2-pyridinyl)-1H-pyrazolo[3,4-b]quinoline] | 91 to 93

Row | Compound | melting point [°C]
17 | Cc1nn(-c2ccccn2)c2[nH]c3ccc([S+](C)[O-])cc3c(=O)c12 (stereo not shown) [Example 2-51, 3-Methyl-6-(methylsulfinyl)-1-(2-pyridinyl)-1,9-dihydro-4H-pyrazolo[3,4-b]quinolin-4-one] | 268 to 269
18 | Cc1nn(-c2nccs2)c2nc3ccccc3c(Cl)c12 [Example 2-149, 4-Chloro-3-methyl-1-(1,3-thiazol-2-yl)-1H-pyrazolo[3,4-b]quinoline] | 208 to 209
19 | Cc1nn(-c2ccccn2)c2nc3ccc(F)c(F)c3c(Cl)c12 [Example 2-88, 4-Chloro-5,6-difluoro-3-methyl-1-(2-pyridinyl)-1H-pyrazolo[3,4-b]quinoline] | 240 to 242
20 | Cc1nn(-c2ccccn2)c2ncc(C(=O)N(C)c3ccccc3)c(OCc3ccccc3)c12 [Example 1-17, 4-(Benzyloxy)-N,3-dimethyl-N-phenyl-1-(2-pyridinyl)-1H-pyrazolo[3,4-b]pyridine-5-carboxamide] | 92 to 93
21 | Cc1nn(-c2ccncc2)c2[nH]c3ccccc3c(=O)c12 [Example 2-143, 3-Methyl-1-(4-pyridinyl)-1,9-dihydro-4H-pyrazolo[3,4-b]quinolin-4-one] | > 300
22 | Cc1nn(-c2ccccn2)c2ncc(C(=O)N3CCCCC3)c(O)c12 [Example 1-10, [4-Hydroxy-3-methyl-1-(2-pyridinyl)-1H-pyrazolo[3,4-b]pyridin-5-yl](1-piperidinyl)methanone] | 264 to 266
23 | Cc1nn(-c2ccccn2)c2ncc(C(=O)Nc3ccc(F)cc3)c(O)c12 [Example 1-14, N-(4-Fluorophenyl)-4-hydroxy-3-methyl-1-(2-pyridinyl)-1H-pyrazolo[3,4-b]pyridine-5-carboxamide] | > 300
24 | Cc1nn(-c2ccccn2)c2nc3ccccc3c(C(N)=O)c12 [Example 2-108, 3-Methyl-1-(2-pyridinyl)-1H-pyrazolo[3,4-b]quinoline-4-carboxamide] | > 300
25 | COc1c2ccccc2nc2c1c(C)nn2-c1cccnc1 [Example 2-139, 4-Methoxy-3-methyl-1-(3-pyridinyl)-1H-pyrazolo[3,4-b]quinoline] | 126 to 128
26 | Cc1nn(-c2ccccn2)c2nc3c(F)cccc3c(Cl)c12 [Example 2-84, 4-Chloro-8-fluoro-3-methyl-1-(2-pyridinyl)-1H-pyrazolo[3,4-b]quinoline] | 191
27 | Cc1ccc2nc3c(c(C)nn3-c3ccccn3)c(Cl)c2c1 [Example 2-32, 4-Chloro-3,6-dimethyl-1-(2-pyridinyl)-1H-pyrazolo[3,4-b]quinoline] | 158 to 160
28 | Cc1nn(-c2ccccn2)c2[nH]c3cc(Cl)c(F)cc3c(=O)c12 [Example 2-97, 7-Chloro-6-fluoro-3-methyl-1-(2-pyridinyl)-1,9-dihydro-4H-pyrazolo[3,4-b]quinolin-4-one] | 264 to 265
29 | O=c1c2ccccc2[nH]c2c1c(-c1ccccc1)nn2-c1ccccn1 [Example 2-182, 3-Phenyl-1-(2-pyridinyl)-1,9-dihydro-4H-pyrazolo[3,4-b]quinolin-4-one] | 237 to 240
30 | Cc1nn(-c2ccccn2)c2ncc(C(=O)NCc3ccccc3)c(O)c12 [Example 1-9, N-Benzyl-4-hydroxy-3-methyl-1-(2-pyridinyl)-1H-pyrazolo[3,4-b]pyridine-5-carboxamide] | > 300
31 | Fc1ccc2nc3c(cnn3-c3ccccn3)c(Cl)c2c1 [Example 2-164, 4-Chloro-6-fluoro-1-(2-pyridinyl)-1H-pyrazolo[3,4-b]quinoline] | 176 to 179
